Laboratory results taken from patent US20240263068A1, “AIE Fluorescent Probe Composition, Method and Device for Measuring CMC of Surfactant Solution, and Method and Device for CMC Determination” (Moon House (China) Co., Ltd., priority 2022, published 2024).
Like-named read-outs stand apart in the source and are kept apart here. Each block holds one molecule with its values, some of them ahead of it.

Key:
[1] = Fluorescence emission peaks excited by 365 nm ultraviolet light; assay type: physicochemical
From the text: That is, the wavelength range of 400-550 nm within which the emission peaks of the fluorescent whitening agent CBS occur is avoided. In this way, the interference of the fluorescent whitening agent with the CMC determination result may be avoided.

[2] = From the text: It is generally believed that the type or polarity of a solvent almost has no influence on the fluorescence absorption or emission spectrum of the HPS.
[3] = cited from earlier work

SMILES: c1ccc(C2=C(c3ccccc3)[Si](c3ccccc3)(c3ccccc3)C(c3ccccc3)=C2c2ccccc2)cc1 [HPS, 1,1,2,3,4,5-hexaphenylsilole]
Solubility of HPS powder in water [2]: insoluble in water | Fluorescence emission peak, sharp with high intensity ([1]; excited by 365 nm): 350-370 nm | Fluorescence emission peak, wide and short with relatively low intensity ([1]; excited by 365 nm): 720-740 nm | Solubility of HPS ([3]; alcohols such as methanol): slightly soluble | Solubility of HPS ([3]; good solvents such as acetonitrile, tetrahydrofuran and chloroform): highly soluble | Solubility of HPS ([3]; water): completely insoluble

SMILES: CN1CCCC1=O [NMP]
Solubility of HPS to Solvent [2]: soluble

SMILES: CCCCCO [n-pentanol]
Solubility of HPS to Solvent [2]: slightly soluble

Further lines, results first:

Wavelength range of emission peaks ([1]; fluorescent whitening agent in detergent): 400-550 nm
SMILES: O=S(=O)([O-])c1ccccc1C=Cc1ccc(-c2ccc(C=Cc3ccccc3S(=O)(=O)[O-])cc2)cc1.[Na+].[Na+] [CBS]

Solubility of HPS to Solvent [2]: soluble
SMILES: C[S+](C)[O-] [DMSO]

Solubility of HPS to Solvent [2]: soluble
SMILES: c1ccc2ncccc2c1 [Quinoline]
